Literature values, collected in patent US20130164335A1, “METHODS AND COMPOSITIONS FOR CELLULAR DRUG RELEASE” (NATIONAL HEALTH RESEARCH INSTITUTES, priority 2011, published 2013).

Conditions: after the first dosage; from a report

SMILES: Cc1cc2c(s1)Nc1ccccc1N=C2N1CCN(C)CC1 [OLZ, Olanzapine]
- time to reach steady-state: one week
